The text below walks through data of ChEMBL document CHEMBL1201862, “PubChem BioAssay data set” (2004).

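How tested: cells in 96-well plates exposed to compound for 48 hours at five concentrations. GI50 marks 50% less growth.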 The source made the active and inactive calls. Cut-off read from the data, not from the text of the source: active = GI50 up to about 1.1 µM and inactive = higher.

Some test systems named below: LXFL 529; DMS-273; M19-MEL; DLD-1; KM-20L2; XF498; SNB-78; DMS-114; RXF 631.
What all share (assay): NCI-60 cell line screen, 48 h

Turning to `O=C1CCCCC1S(=O)(=O)c1ccccc1` (centres undefined), the GI50 with LXFL 529, with DMS-273, with M19-MEL, in the experiment with DLD-1, in the experiment on KM-20L2 and in the experiment with XF498 was > 100 µM (inactive) each time. In addition, the GI50 in the experiment on SNB-78 and in the experiment on DMS-114 was > 100 µM (inactive) each time.

For the compound `COc1cccc2c1C1(O)C2CCCCCCCCCC12OCCCO2` (centres undefined), the GI50 with LXFL 529 is 45.6 µM (inactive); with DMS-273 it was > 100 µM (inactive); with DLD-1 it was 6.64 µM (inactive); in the experiment on KM-20L2 it was > 100 µM (inactive); in the experiment on SNB-78 it was > 100 µM (inactive); with DMS-114, > 100 µM (inactive).

Turning to `C=C1C(=O)OC2/C=C(\C)C3OC3/C=C(/C(=O)OC)C(OC(C)=O)C(OC(=O)C(C)(O)C(C)OC(C)=O)C12` (centres undefined), the GI50 in the experiment with LXFL 529 was 1.1 µM (active); in the experiment with DMS-273 it was 1.57 µM (inactive); in the experiment with M19-MEL, 2.39 µM (inactive); with DLD-1, 2.39 µM (inactive); in the experiment with XF498, 1.96 µM (inactive); in the experiment on SNB-78 it was 2.53 µM (inactive). For the same compound, the values for the GI50 in the experiment on RXF 631 and in the experiment with DMS-114 were 2.55 µM (inactive) and 1.15 µM (inactive), respectively.

Consider `Cc1ccc(S(=O)(=O)NC(=O)NC23CC4CC(CC(F)(C4)C2)C3)cc1`, for which the GI50 in the experiment on LXFL 529, in the experiment on DMS-273, in the experiment on M19-MEL, in the experiment with DLD-1, in the experiment with KM-20L2 and with XF498 was > 100 µM (inactive) throughout. The GI50 with SNB-78 and in the experiment with DMS-114 was > 100 µM (inactive) throughout.

For the compound `O=C1[C@H]2ON(c3ccccc3)C(c3ccc(Cl)cc3Cl)[C@H]2C(=O)N1c1ccc(Cc2ccc(N3C(=O)[C@@H]4ON(c5ccccc5)C(c5ccc(Cl)cc5Cl)[C@@H]4C3=O)cc2)cc1` (some centres undefined), the GI50 in the experiment on LXFL 529, with DMS-273, in the experiment with M19-MEL, in the experiment with DLD-1, in the experiment on KM-20L2 and in the experiment with SNB-78 was > 100 µM (inactive) in each case. In addition, in the experiment with DMS-114, the GI50 was > 100 µM (inactive).

Consider `CCCCCCCCCCSC(=O)NC`, for which the GI50 is 49.4 µM (inactive) in the experiment on LXFL 529; 29.2 µM (inactive) in the experiment with DMS-273; 38.1 µM (inactive) with M19-MEL; 36.9 µM (inactive) in the experiment on DLD-1; > 10 µM (inactive) in the experiment on KM-20L2; 21.3 µM (inactive) in the experiment on XF498.

Take `NC(Cc1ccc2oc3cc(=O)c4ccccc4c-3nc2c1)C(=O)O` (centres undefined): the GI50 was 55.5 µM (inactive) in the experiment with LXFL 529; 22.4 µM (inactive) with DMS-273; 34.8 µM (inactive) with DLD-1; 39.2 µM (inactive) in the experiment on KM-20L2; > 100 µM (inactive) in the experiment on SNB-78; 13.9 µM (inactive) with DMS-114.

On to `COC(=O)C(C(=O)C(=O)Nc1ccc(OC)cc1[N+](=O)[O-])c1nc2cc(C)c(C)cc2nc1O` (centres undefined), for which the GI50 with LXFL 529, in the experiment with M19-MEL, with DLD-1, in the experiment with KM-20L2, in the experiment on SNB-78 and in the experiment with RXF 631 was > 100 µM (inactive) throughout. The GI50 in the experiment on DMS-114 is > 100 µM (inactive).

On to `O=C(c1ccc(Cl)cc1)c1ccc(OCCCOc2ccc(C(=O)c3ccc(Cl)cc3)cc2Cl)c(Cl)c1`, for which the GI50 in the experiment on LXFL 529, in the experiment on DMS-273, with M19-MEL, in the experiment on DLD-1, in the experiment with KM-20L2 and in the experiment on XF498 was > 100 µM (inactive) throughout. Further, the GI50 in the experiment on SNB-78, with RXF 631 and with DMS-114 was > 100 µM (inactive) throughout.

On to `CC(=O)COC(=O)CC(C)=O`, for which the GI50 with LXFL 529, in the experiment with DMS-273, in the experiment with M19-MEL, in the experiment with DLD-1, in the experiment with KM-20L2 and with XF498 was > 100 µM (inactive) throughout. Also, the GI50 in the experiment with RXF 631 and in the experiment on DMS-114 was > 100 µM (inactive) in each case.

As to `CSc1n[n+]2c(s1)SCCC2`, the GI50 in the experiment on LXFL 529, in the experiment on DMS-273, in the experiment on M19-MEL, in the experiment with DLD-1, with XF498 and in the experiment with SNB-78 was > 100 µM (inactive) in each case. Moreover, the results for the GI50 in the experiment on RXF 631 and with DMS-114 were > 100 µM (inactive) and 62.5 µM (inactive), respectively.

Take `NS(=O)(=O)c1ccc(Nc2c3ccccc3nc3c(C(=O)N4CCN(CCO)CC4)cccc23)cc1`: the GI50 with LXFL 529 is 60.3 µM (inactive); with DMS-273, 82.6 µM (inactive); in the experiment with M19-MEL it was > 100 µM (inactive); in the experiment with KM-20L2, > 100 µM (inactive); in the experiment on XF498, > 100 µM (inactive); with SNB-78 it was 69.3 µM (inactive). The GI50 in the experiment with DMS-114 is 75.5 µM (inactive).

Take `C/C(=N\N=C(N)N)c1sc(-c2nc(C)c(/C(C)=N/N=C(N)N)s2)nc1C`: the GI50 was > 88.3 µM (inactive) with LXFL 529; > 100 µM (inactive) in the experiment with DMS-273; > 100 µM (inactive) in the experiment with M19-MEL; > 51.2 µM (inactive) with DLD-1; > 100 µM (inactive) in the experiment on KM-20L2; > 100 µM (inactive) with XF498. Further, the GI50 in the experiment on SNB-78 is > 100 µM (inactive).

In the case of `CN(CCc1ccccn1)/[N+]([O-])=N/O.CNCCc1ccccn1`, the GI50 in the experiment on LXFL 529, with DMS-273, with M19-MEL, with DLD-1, with KM-20L2 and with SNB-78 was > 100 µM (inactive) in each case. Moreover, the GI50 in the experiment with RXF 631 and in the experiment with DMS-114 was > 100 µM (inactive) throughout.

On to `Cc1cc2oc(=O)[nH]c(=S)c2c(C)c1C`, for which the GI50 in the experiment on LXFL 529, in the experiment with DMS-273, with M19-MEL, in the experiment on KM-20L2, in the experiment on XF498 and in the experiment on DMS-114 was > 100 µM (inactive) throughout.

As to `COc1cc2c(cc1OC)[C@H]1C(COC(=O)Nc3ccccc3)CN1CC2` (some centres undefined), the GI50 in the experiment with LXFL 529, in the experiment on DMS-273, in the experiment on M19-MEL and in the experiment on DLD-1 was > 100 µM (inactive) throughout.

For the compound `CCCCCCCCCCCCCCCCOCC(CN(C)CCN(C)C)OCCCCCCCCCCCCCCCC` (centres undefined), the GI50 in the experiment with LXFL 529, in the experiment with DMS-273, in the experiment on M19-MEL, in the experiment on DLD-1, in the experiment on KM-20L2 and with SNB-78 was > 100 µM (inactive) each time. The GI50 with RXF 631 and with DMS-114 was > 100 µM (inactive) in each case.

Regarding `COc1cc(CC2c3cc(OC)c(OC)cc3CCN2C)ccc1O` (centres undefined), the GI50 in the experiment with LXFL 529, in the experiment on DLD-1, in the experiment with KM-20L2, in the experiment with XF498 and with SNB-78 was > 100 µM (inactive) each time.

With `Clc1ccc(-n2nnc(C3=NCCN3)c2-c2ccccc2)cc1`, the GI50 with LXFL 529, with DMS-273, in the experiment with M19-MEL, in the experiment on DLD-1, with KM-20L2 and with XF498 was > 100 µM (inactive) each time. Besides, the GI50 in the experiment on SNB-78 and in the experiment with DMS-114 was > 100 µM (inactive) in each case.

`C=C(C)C1Cc2c(cc(OC)c3c(=O)c4ccccc4n(C)c23)O1` (centres undefined): the GI50 in the experiment with LXFL 529 was > 100 µM (inactive); in the experiment on DMS-273, 91.6 µM (inactive); in the experiment with M19-MEL, 63.7 µM (inactive); with DLD-1, > 100 µM (inactive); with KM-20L2, > 100 µM (inactive); in the experiment on XF498, > 100 µM (inactive). Further, the GI50 with SNB-78 was > 100 µM (inactive); in the experiment on DMS-114, 91.8 µM (inactive).

With `O=C(/C=C/c1ccc(O)cc1)c1ccc(O)cc1` [4,4'-DIHYDROXYCHALCONE], the GI50 with DMS-273 is 16.5 µM (inactive); with M19-MEL, 21.7 µM (inactive); in the experiment with DLD-1 it was 18 µM (inactive); with KM-20L2 it was 20.3 µM (inactive); with XF498, 19.3 µM (inactive); in the experiment on SNB-78 it was 45.2 µM (inactive). Besides, the GI50 in the experiment on DMS-114 is 18.9 µM (inactive).
